Data: patent publication US8039458B2, “HIV integrase inhibitors” (priority 2005, dated 2011)

Experiments:
[1] = system: recombinant NL-Rluc virus; experiment: Inhibition of HIV replication (NL-RLuc virus, Renilla luciferase); format: cell-based; conditions: Human immunodeficiency virus 1, read-out: antiviral actitively
HIV-Integrase = molecular target: T1, HIV-Integrase (Human immunodeficiency virus type 1 group M subtype B, UniProt P12497); experiment: HIV-Integrase binding assay (competition with [3H]-compound I, SPA); conditions: competitive binding vs [3H]-compound I to purified integrase; Ki by Cheng and Prusoff; read-out: in vitro binding
T1 construct: Recombinant integrase (0.26 ng) was incubated with the beads
Procedure: HIV-Integrase Inhibition Activity. To evaluate in-vitro activity against HIV-integrase, 5 pmole of biotin labeled substrate DNA was bound to 100 μg of Streptavidin coated PVT SPA beads (Amersham Pharmacia Biotech). Recombinant integrase (0.26 ng) was incubated with the beads for 90 min at 37° C. Unbound enzyme was removed by washing the complex followed by addition of inhibitors and 0.1 fmol of P33 labeled target DNA. The reaction was stopped by adding EDTA to a final concentration of 10 mM. Samples were counted in TopCountNXT (Packard) and the CPM was used as a measure of integration. The reaction condition was as described in A. Engelman and R. Craigie, J. Virol. 69, 5908-5911 (1995). The sequences of substrate and target DNA were described in Nucleic Acid Research 22,1121-1122 (1994).
HIV-Integrase binding assay. In this assay competitive binding experiments with test compounds and a radiolabeled integrase inhibitor (compound I) are performed against purified integrase. SPA bead/DNA/enzyme complexes were prepared as for the integrase inhibition assay except, to each well, 0.69 μl of integrase enzyme ([…]) was used per 2 μl of LTR DNA-attached scintillation proximity beads (stock 50 mg/ml). Binding reactions were carried out in 96-well white polystyrene assay plates (Corning, #3600). The following was added sequentially to each well: 20 μl of water or 20 μl of human serum (Cellgro Cat# 35-060-CL), 5 μl of serially diluted compound (in 50% DMSO/50% integrase SPA buffer), 5 μl of [^3H]-compound I (6,000 cpm/μl in SPA buffer) and 20 μl of bead/DNA/enzyme complex. The plates were shaken for 2 hours and then allowed to sit at room temperature without shaking overnight. The [^3H]-compound I binding was measured using a Topcount scintillation counter. Cheng and Prusoff equations were used to convert the inhibition of compound 1 binding into the corresponding Ki value. Activity equal to A refers to a compound having Ki=0.001 to 0.003 μM while B and C denote compounds having Ki=0.003 to 0.05 μM and Ki≧0.050 μM respectively.

Structure (SMILES) | EC50 [1] [nM] | Ki (HIV-Integrase) [nM] | melting point [°C]
Cc1ncnn1-c1cc(F)ccc1CNC(=O)c1nc2n(c(=O)c1O)CCOCC21CCCC1 [Example 23, N-((4-fluoro-2-(5-methyl-1H-1,2,4-triazol-1-yl)phenyl)methyl)-3′-hydroxy-4′-oxo-6′,7′-dihydro-4′H-spiro[cyclopentane-1,10′-pyrimido[1,2-d][1,4]oxazepine]-2′-carboxamide] | 1 to 10 | 1 to 3 | 
Cc1nc(C)n(-c2cc(F)ccc2CNC(=O)c2nc3n(c(=O)c2O)CCOCC32CCCC2)n1 [Example 24, N-((2-(3,5-dimethyl-1H-1,2,4-triazol-1-yl)-4-fluorophenyl)methyl)-3′-hydroxy-4′-oxo-6′,7′-dihydro-4′H-spiro[cyclopentane-1,10′-pyrimido[1,2-d][1,4]oxazepine]-2′-carboxamide] | 1 to 10 | 3 to 50 | 
O=C(NCc1ccc(F)cc1-n1cnc(CO)n1)c1nc2n(c(=O)c1O)CCOCC21CCOCC1 [Example 25, N-((4-fluoro-2-(3-(hydroxymethyl)-1H-1,2,4-triazol-1-yl)phenyl)methyl)-3′-hydroxy-4′-oxo-2,3,5,6,6′,7′-hexahydro-4′H-spiro[pyran-4,10′-pyrimido[1,2-d][1,4]oxazepine]-2′-carboxamide] | > 50 | 3 to 50 | 
COCc1ncn(-c2cc(F)ccc2CNC(=O)c2nc3n(c(=O)c2O)CCOCC32CCOCC2)n1 [Example 26, N-((4-fluoro-2-(3-((methyloxy)methyl)-1H-1,2,4-triazol-1-yl)phenyl)methyl)-3′-hydroxy-4′-oxo-2,3,5,6,6′,7′-hexahydro-4′H-spiro[pyran-4,10′-pyrimido[1,2-d][1,4]oxazepine]-2′-carboxamide] | 10 to 50 | 3 to 50 | 
Cn1cnn(-c2cc(F)ccc2CNC(=O)c2nc3n(c(=O)c2O)CCOCC32CCOCC2)c1=O [Example 27, N-(4-Fluoro-2-(4-methyl-5-oxo-4,5-dihydro-1H-1,2,4-triazol-1-yl)benzyl)-3′-hydroxy-4′-oxo-2,3,4′,5,6,6′,7′,9′-octahydrospiro[pyran-4,10′-pyrimido[1,2-d][1,4]oxazepine]-2′-carboxamide] | 1 to 10 | 3 to 50 | 
Cc1nn(-c2cc(F)ccc2CNC(=O)c2nc3n(c(=O)c2O)CCOCC32CCOCC2)c(=O)n1C [Example 28, N-(2-(3,4-dimethyl-5-oxo-4,5-dihydro-1H-1,2,4-triazol-1-yl)-4-fluorobenzyl)-3′-hydroxy-4′-oxo-2,3,4′,5,6,6′,7′,9′-octahydrospiro[pyran-4,10′-pyrimido[1,2-d][1,4]oxazepine]-2′-carboxamide] | 1 to 10 | 3 to 50 | 
O=C(NCc1ccc(F)cc1)c1nc2n(c(=O)c1O)CCOCC2 [Example 31, N-((4-fluorophenyl)methyl)-3-hydroxy-4-oxo-6,7,9,10-tetrahydro-4H-pyrimido[1,2-d][1,4]oxazepine-2-carboxamide] | > 50 | 3 to 50 | 197 to 199
O=C(NCc1ccc(F)cc1)c1nc2n(c(=O)c1O)CCOCC21CCOCC1 [Example 32, N-((4-fluorophenyl)methyl)-3′-hydroxy-4′-oxo-2,3,5,6,6′,7′-hexahydro-4′H-spiro[pyran-4,10′-pyrimido[1,2-d][1,4]oxazepine]-2′-carboxamide] | 10 to 50 | 3 to 50 | 
CNC(=O)c1cc(F)ccc1CNC(=O)c1nc2n(c(=O)c1O)CCOCC21CCOCC1 [Example 33, N-((4-fluoro-2-((methylamino)carbonyl)phenyl)methyl)-3′-hydroxy-4′-oxo-2,3,5,6,6′,7′-hexahydro-4′H-spiro[pyran-4,10′-pyrimido[1,2-d][1,4]oxazepine]-2′-carboxamide] | 1 to 10 | 3 to 50 | 
O=C(NCc1ccc(F)cc1-n1cncn1)c1nc2n(c(=O)c1O)CCOCC21CCOCC1 [Example 34, N-((4-fluoro-2-(1H-1,2,4-triazol-1-yl)phenyl)methyl)-3′-hydroxy-4′-oxo-2,3,5,6,6′,7′-hexahydro-4′H-spiro[pyran-4,10′-pyrimido[1,2-d][1,4]oxazepine]-2′-carboxamide] | 1 to 10 | 1 to 3 | 
Cc1ncn(-c2cc(F)ccc2CNC(=O)c2nc3n(c(=O)c2O)CCOCC32CCOCC2)n1 [Example 35, N-((4-fluoro-2-(3-methyl-1H-1,2,4-triazol-1-yl)phenyl)methyl)-3′-hydroxy-4′-oxo-2,3,5,6,6′,7′-hexahydro-4′H-spiro[pyran-4,10′-pyrimido[1,2-d][1,4]oxazepine]-2′-carboxamide] | 1 to 10 | 3 to 50 | 
Cc1ncnn1-c1cc(F)ccc1CNC(=O)c1nc2n(c(=O)c1O)CCOCC21CCOCC1 [Example 36, N-((4-fluoro-2-(5-methyl-1H-1,2,4-triazol-1-yl)phenyl)methyl)-3′-hydroxy-4′-oxo-2,3,5,6,6′,7′-hexahydro-4′H-spiro[pyran-4,10′-pyrimido[1,2-d][1,4]oxazepine]-2′-carboxamide] | 1 to 10 | 3 to 50 | 
Cc1cnnn1-c1cc(F)ccc1CNC(=O)c1nc2n(c(=O)c1O)CCOCC21CCOCC1 [Example 37, N-((4-fluoro-2-(5-methyl-1H-1,2,3-triazol-1-yl)phenyl)methyl)-3′-hydroxy-4′-oxo-2,3,5,6,6′,7′-hexahydro-4′H-spiro[pyran-4,10′-pyrimido[1,2-d][1,4]oxazepine]-2′-carboxamide] | 10 to 50 | 3 to 50 | 
CN1CCN(c2cc(F)ccc2CNC(=O)c2nc3n(c(=O)c2O)CCOCC32CCOCC2)C1=O [Example 38, N-((4-fluoro-2-(3-methyl-2-oxo-1-imidazolidinyl)phenyl)methyl)-3′-hydroxy-4′-oxo-2,3,5,6,6′,7′-hexahydro-4′H-spiro[pyran-4,10′-pyrimido[1,2-d][1,4]oxazepine]-2′-carboxamide] | 1 to 10 | 3 to 50 | 
O=C(NCc1ccc(F)cc1-n1ncnc1CF)c1nc2n(c(=O)c1O)CCOCC21CCOCC1 [Example 39, N-((4-fluoro-2-(5-(fluoromethyl)-1H-1,2,4-triazol-1-yl)phenyl)methyl)-3′-hydroxy-4′-oxo-2,3,5,6,6′,7′-hexahydro-4′H-spiro[pyran-4,10′-pyrimido[1,2-d][1,4]oxazepine]-2′-carboxamide] | 1 to 10 | 3 to 50 | 
Cn1ncnc1-c1cc(F)ccc1CNC(=O)c1nc2n(c(=O)c1O)CCOCC21CCOCC1 [Example 40, N-((4-fluoro-2-(1-methyl-1H-1,2,4-triazol-5-yl)phenyl)methyl)-3′-hydroxy-4′-oxo-2,3,5,6,6′,7′-hexahydro-4′H-spiro[pyran-4,10′-pyrimido[1,2-d][1,4]oxazepine]-2′-carboxamide] | 1 to 10 | 3 to 50 | 
Cc1nc(-c2cc(F)ccc2CNC(=O)c2nc3n(c(=O)c2O)CCOCC32CCOCC2)n(C)n1 [Example 41, N-((2-(1,3-dimethyl-1H-1,2,4-triazol-5-yl)-4-fluorophenyl)methyl)-3′-hydroxy-4′-oxo-2,3,5,6,6′,7′-hexahydro-4′H-spiro[pyran-4,10′-pyrimido[1,2-d][1,4]oxazepine]-2′-carboxamide] | 10 to 50 | 3 to 50 | 
Cc1n[nH]c(-c2cc(F)ccc2CNC(=O)c2nc3n(c(=O)c2O)CCOCC32CCOCC2)n1 [Example 42, N-((4-fluoro-2-(3-methyl-1H-1,2,4-triazol-5-yl)phenyl)methyl)-3′-hydroxy-4′-oxo-2,3,5,6,6′,7′-hexahydro-4′H-spiro[pyran-4,10′-pyrimido[1,2-d][1,4]oxazepine]-2′-carboxamide] | 1 to 10 | 1 to 3 | 
